Eight compounds from ChEMBL document CHEMBL1201862, “PubChem BioAssay data set” (2004) can be followed below.

Test systems include ACHN; MCF7; SK-OV-3; RPMI-8226; UACC-62; NCI-H226; BT-549; MDA-N; HCC 2998; OVCAR-5; SF-295; LOX IMVI; Malme-3M; M14; HT-29; SNB-19; HCT-15; CAKI-1; MDA-MB-231; SK-MEL-28.
What all share (test): NCI tumour cell line growth inhibition, 48 h

SMILES strings stand for the structures.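 Briefly, cells in 96-well plates were exposed to five compound concentrations for 48 h, and endpoints were estimated by linear interpolation. GI50 = concentration required for 50% inhibition of growth.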 Calls of active or inactive are those of the source. Cut-off read from the data, not from the text of the source: active = GI50 up to about 1.1 µM and inactive = higher.

As to `N#Cc1c(O)nc2nn3c4ccc5ccccc5c4nnc3c2c1-c1ccc(Cl)cc1`, the GI50 was 2.49 µM (inactive) in the test with ACHN; 1.75 µM (inactive) in the test with MCF7; 3.3 µM (inactive) with SK-OV-3; 2.9 µM (inactive) in the test on RPMI-8226; 1.49 µM (inactive) with UACC-62; 7.14 µM (inactive) with NCI-H226. Moreover, the GI50 in the test with BT-549 was 0.174 µM (active); with MDA-N it was 2.52 µM (inactive); in the test on HCC 2998 it was 2.68 µM (inactive); in the test with OVCAR-5, 6.24 µM (inactive); in the test with SF-295 it was 1.84 µM (inactive); with LOX IMVI, 1.83 µM (inactive). In addition, the GI50 in the test with Malme-3M is 1.93 µM (inactive); with M14, 2.38 µM (inactive); in the test with HT-29, 2.94 µM (inactive); with SNB-19, 3.13 µM (inactive); with HCT-15 it was 1.89 µM; in the test on CAKI-1, 2.29 µM (inactive). Moreover, the figures for the GI50 with MDA-MB-231 and in the test with SK-MEL-28 were 5.36 µM (inactive) and 2.24 µM (inactive), respectively.

For `Nc1ccccc1.O=P(O)(O)c1ccccc1`, the GI50 with ACHN, in the test on MCF7, in the test on SK-OV-3, in the test on RPMI-8226, in the test with UACC-62 and with NCI-H226 was > 100 µM (inactive) each time. Besides, the GI50 with BT-549, in the test on MDA-N, with HCC 2998, with OVCAR-5, in the test with SF-295 and in the test on LOX IMVI was > 100 µM (inactive) throughout. Further, the GI50 with Malme-3M was > 100 µM (inactive); in the test on M14, > 100 µM (inactive); with HT-29, > 100 µM (inactive); in the test with SNB-19, > 100 µM (inactive); in the test on HCT-15, over 100 µM; with CAKI-1 it was > 100 µM (inactive). Besides, the GI50 in the test with MDA-MB-231 and with SK-MEL-28 was > 100 µM (inactive) in each case.

As for `N#Cc1ccc(C(=O)/C=C/c2ccc(O)c(O)c2)cc1`, the GI50 in the test with ACHN is 17.3 µM (inactive); with MCF7, 13 µM (inactive); in the test on SK-OV-3, 21.9 µM (inactive); in the test on RPMI-8226 it was 3.1 µM (inactive); in the test with UACC-62, 17.1 µM (inactive); in the test on NCI-H226, 20.2 µM (inactive). The GI50 is 12.6 µM (inactive) with BT-549; 14.9 µM (inactive) in the test with MDA-N; 14.8 µM (inactive) with HCC 2998; 17.7 µM (inactive) in the test on OVCAR-5; 17.7 µM (inactive) in the test on SF-295; 11.5 µM (inactive) in the test on LOX IMVI. The GI50 was 15.7 µM (inactive) in the test on Malme-3M; 18.2 µM (inactive) in the test with M14; 16.4 µM (inactive) with HT-29; 15.8 µM (inactive) in the test with SNB-19; 15.5 µM with HCT-15; 15.3 µM (inactive) in the test with CAKI-1. Besides, the results for the GI50 with MDA-MB-231 and in the test on SK-MEL-28 were 15.6 µM (inactive) and 15.5 µM (inactive), respectively.

Turning to `CCCC(=O)Nc1cn(COC)c(C(=O)N2C[C@H]3C[C@@]34C2=CC(=O)c2[nH]cc(C)c24)n1`, the GI50 with ACHN was 2.42 µM (inactive); with MCF7, 1.32 µM (inactive); in the test on SK-OV-3, 16.7 µM (inactive); with RPMI-8226, 6.04 µM (inactive); in the test with UACC-62, 5.92 µM (inactive); with NCI-H226, 9.86 µM (inactive). The GI50 was 9.2 µM (inactive) with BT-549; 9.16 µM (inactive) in the test on MDA-N; 2.89 µM (inactive) with HCC 2998; 12.4 µM (inactive) in the test on OVCAR-5; 7.94 µM (inactive) with SF-295; 7.14 µM (inactive) in the test with LOX IMVI. The GI50 with Malme-3M is 2.44 µM (inactive); with M14, 8.15 µM (inactive); in the test with HT-29, 7.35 µM (inactive); with SNB-19, 18.1 µM (inactive); with HCT-15, 11.9 µM; in the test on CAKI-1, 2.72 µM (inactive). Further, the GI50 in the test with MDA-MB-231 was 13.1 µM (inactive); in the test on SK-MEL-28, 12 µM (inactive).

Regarding `COc1cc(CNC(=O)CCCCCCCCCCSC#N)ccc1O`, the GI50 in the test with ACHN is > 10 µM (inactive); with MCF7, 17.1 µM (inactive); in the test on SK-OV-3, 10.6 µM (inactive); in the test with RPMI-8226, 14.6 µM (inactive); in the test on UACC-62, 5.41 µM (inactive); with NCI-H226, 18.1 µM (inactive). In addition, the GI50 is 22.9 µM (inactive) with BT-549; 5.87 µM (inactive) with MDA-N; > 100 µM (inactive) in the test on HCC 2998; 30.3 µM (inactive) in the test on OVCAR-5; 19.1 µM (inactive) in the test on SF-295; 12 µM (inactive) in the test on LOX IMVI. Also, the GI50 in the test with Malme-3M is 32.7 µM (inactive); with M14 it was 7.38 µM (inactive); in the test on HT-29, 31.9 µM (inactive); with SNB-19, 19.7 µM (inactive); with HCT-15 it was 6.93 µM; with CAKI-1, 18.2 µM (inactive). The GI50 is 25.7 µM (inactive) with MDA-MB-231 and 7.66 µM (inactive) with SK-MEL-28.

Consider `C/C=C/COc1cc(NC(=S)c2ccoc2C)ccc1OC`, for which the GI50 in the test with MCF7 was > 100 µM (inactive); with SK-OV-3, 61.1 µM (inactive); in the test with RPMI-8226 it was 23 µM (inactive); in the test on UACC-62, > 100 µM (inactive); in the test on NCI-H226, > 100 µM (inactive); in the test on BT-549 it was > 100 µM (inactive). The GI50 is > 100 µM (inactive) in the test on MDA-N; > 100 µM (inactive) in the test on HCC 2998; > 100 µM (inactive) in the test with OVCAR-5; 77.8 µM (inactive) in the test with SF-295; > 100 µM (inactive) in the test with LOX IMVI; 89.1 µM (inactive) with Malme-3M. The GI50 was > 100 µM (inactive) with M14; > 100 µM (inactive) with HT-29; 26.7 µM (inactive) with SNB-19; over 100 µM with HCT-15; 25.6 µM (inactive) in the test on CAKI-1; 29.5 µM (inactive) in the test on MDA-MB-231. Besides, in the test with SK-MEL-28, the GI50 is > 100 µM (inactive).

In the case of `CC(=O)N1C(C(=O)NN2CCOCC2)CSC1c1ccccc1` (configuration not stated), the GI50 in the test with ACHN, in the test on MCF7, in the test on SK-OV-3, in the test on RPMI-8226, with UACC-62 and in the test on NCI-H226 was > 100 µM (inactive) throughout. The GI50 in the test with BT-549, with MDA-N, in the test on HCC 2998, in the test on OVCAR-5, in the test on SF-295 and with LOX IMVI was > 100 µM (inactive) throughout. Further, the GI50 in the test on Malme-3M was > 100 µM (inactive); in the test with M14 it was > 100 µM (inactive); in the test on HT-29, > 100 µM (inactive); with SNB-19, > 100 µM (inactive); in the test with HCT-15, over 100 µM; in the test with CAKI-1 it was > 100 µM (inactive). Further, the GI50 in the test with MDA-MB-231 is > 100 µM (inactive).

Turning to `Nc1nc(NCC2(CO)CCC2)cc(=O)[nH]1`, the GI50 in the test on MCF7, in the test with SK-OV-3, in the test with RPMI-8226, in the test on UACC-62, in the test with NCI-H226 and in the test with BT-549 was > 100 µM (inactive) throughout. The GI50 in the test with MDA-N, in the test with HCC 2998, in the test on OVCAR-5, in the test on SF-295, in the test on LOX IMVI and with Malme-3M was > 100 µM (inactive) in each case. The GI50 in the test with M14 is > 100 µM (inactive); in the test with HT-29, > 100 µM (inactive); in the test on SNB-19, > 100 µM (inactive); with HCT-15 it was over 100 µM; in the test with CAKI-1, > 100 µM (inactive); with MDA-MB-231, > 100 µM (inactive). The GI50 with SK-MEL-28 is > 100 µM (inactive).
